Measured values published in US6603046B1, “Bis-aromatic a,β-unsaturated ketones” (Lica Pharmaceuticals A/S, priority 1992, dated 2003).
Values after ≈ are worked out from the molar mass of the structure shown.

What was measured:
Assay in all cases: organism not typed
L. bozemanii = type: cell-based
L. domoffli = type: cell-based, L. dumoffii
L. wadsworthii = type: cell-based
L. longbeacheae = type: cell-based

## C=CC(C)(C)c1cc(/C=C/C(=O)c2ccc(O)cc2)c(OC)cc1O [Licochalcone A, licochalcone A]
L. bozemanii
  MIC: 2 µg/mL (≈ 5.91 µM)
L. domoffli
  MIC: 2 µg/mL (≈ 5.91 µM)
L. wadsworthii
  MIC: 2 µg/mL (≈ 5.91 µM)
L. longbeacheae
  MIC: 1 µg/mL (≈ 2.96 µM)
